# According to PMC2915818 (2010):
# Key:
# [1] = tested on: HT24 (DNA, G4) TAGGGTTAGGGTTAGGGTTAGGGT; test: fluorescence titration, Equispec fit; conditions: 185 mM K+, 185 mM Na+ (as KCl, NaCl); sodium phosphate, 1 mM EDTA, pH 7, 25 °C; excitation 252 nm; 0.2 μM compound
# [2] = tested on: 24bcl (DNA, G4) CGGGCGCGGGAGGAAGGGGGCGGG; test: fluorescence titration, Equispec fit; conditions: 185 mM K+, 185 mM Na+ (as KCl, NaCl); sodium phosphate, 1 mM EDTA, pH 7, 25 °C; excitation 252 nm; 0.2 μM compound
# [3] = tested on: cmyc (DNA, G4) GGGGAGGGTGGGGAGGGTGGGGAAGGTGGGG; test: fluorescence titration, Equispec fit; conditions: 185 mM K+, 185 mM Na+ (as KCl, NaCl); sodium phosphate, 1 mM EDTA, pH 7, 25 °C; excitation 252 nm; 0.2 μM compound
# [4] = tested on: TC triplex (DNA, triplex) CCTCCTCTCTTTCCCTTTTTCTTTCTCTCCTCC/GAAAGAGAGGAGG; test: competitive dialysis; conditions: 185 mM KCl, 185 mM NaCl; sodium phosphate, 1 mM EDTA, pH 7, room temperature; 50 μM DNA, 1 μM compound
# [5] = tested on: Ds26 (DNA, duplex) CAATCGGATCGAATTCGATCCGATTG; test: competitive dialysis; conditions: 185 mM KCl, 185 mM NaCl; sodium phosphate, 1 mM EDTA, pH 7, room temperature; 50 μM DNA, 1 μM compound
# [6] = tested on: Dickerson (DNA, duplex) CGCGAATTCGCG; test: fluorescence titration; conditions: 185 mM K+, 185 mM Na+ (as KCl, NaCl); sodium phosphate, 1 mM EDTA, pH 7, 25 °C; up to 10 μM DNA, 0.2 μM compound
# [7] = tested on: 24bcl (DNA, G4) CGGGCGCGGGAGGAAGGGGGCGGG; test: competitive dialysis; conditions: 185 mM KCl, 185 mM NaCl; sodium phosphate, 1 mM EDTA, pH 7, room temperature; 50 μM DNA, 1 μM compound
# [8] = tested on: cmyc (DNA, G4) GGGGAGGGTGGGGAGGGTGGGGAAGGTGGGG; test: competitive dialysis; conditions: 185 mM KCl, 185 mM NaCl; sodium phosphate, 1 mM EDTA, pH 7, room temperature; 50 μM DNA, 1 μM compound
log K [1],log K [2],log K [3],binding [4],binding [5],binding [6],binding [7],binding [8],SMILES
4.6 ± 0.5,5.1 ± 0.1,4.9 ± 0.2,,,,,,CC(=O)NCCN(CC(=O)NCCN(CC(=O)NCCCCCCO)C(=O)CNC(=O)c1c2ccccc2nc2ccccc12)C(=O)CNC(=O)c1c2ccccc2nc2ccccc12
4.9 ± 0.4,6.8 ± 0.5,5.5 ± 0.3,weak,no,no,,,CC(=O)NCCN(CC(=O)NCCN(CC(=O)NCCCCCCOC(=O)CCC(=O)N(C)CC(N)=O)C(=O)CNC(=O)c1c2ccccc2nc2ccccc12)C(=O)CNC(=O)c1c2ccccc2nc2ccccc12
,,5.3 ± 0.2,,,,yes,,CC(=O)NCCN(CC(=O)NCCN(CC(=O)NCCN(CC(=O)NCCCCCCO)C(=O)CNC(=O)c1c2ccccc2nc2ccccc12)C(=O)CNC(=O)c1c2ccccc2nc2ccccc12)C(=O)CNC(=O)c1c2ccccc2nc2ccccc12
5.3 ± 0.3,5.3 ± 0.2,4.8 ± 0.5,,,,,,CC(=O)NCCN(CC(=O)NCCN(CC(=O)NCCN(CC(=O)NCCCCCCOC(=O)CCC(=O)N(C)CC(N)=O)C(=O)CNC(=O)c1c2ccccc2nc2ccccc12)C(=O)CNC(=O)c1c2ccccc2nc2ccccc12)C(=O)CNC(=O)c1c2ccccc2nc2ccccc12
,,,,weak,,yes,yes,O=C(O)CNC(=O)c1c2ccccc2nc2ccccc12
,,,,yes,,,,O=C(O)c1c2ccccc2nc2ccccc12
